# Results taken from patent publication US10493046B2, “5-hydroxytryptamine 1B receptor-stimulating agent for use as a promoter of satellite cells self-renewal and/or differentiation” (INSTITUT PASTEUR, priority 2015, dated 2019).
# How the values were obtained:
# [1] = tested on: vessels; experiment: Vessel number in tibialis anterior of treated mice (Flk1GFP/+ or CD31 immunostaining); type: in vivo, mouse
# Procedure: Immunostaining was performed on cryosections fixed with 4% paraformaldehyde (PFA EMS#15710) in cold PBS, permeabilized with 0.5% Triton X-100 20 min at room temperature, washed, and blocked with 10% BSA for 30 min. Sections were incubated with primary antibodies overnight at 4° C. (see Table 1 below) and with Alexa-conjugated secondary antibodies 1/250 and Hoechst for 45 minutes. Sections were then analysed using an automated axioscan (Zeiss) or inverted Observer.Z1 Apotome (Zeiss). For apoptosis assessment, cells were collected in 2% serum, spun on polyD-lysine (Sigma-Aldrich#P6407), and immediately fixed with PFA 4%.
# Throughout the study, focus was made on the tibialis anterior (TA). In skeletal muscle, SC are central for muscle repair. […] SC are localized close to capillaries and angiogenesis is known to be crucial for muscle repair SC survival with cellular interplays between vessel cells and SC. The number of vessels was therefore quantified. In control Flk1^GFP/+ mouse (placebo), the number of vessels was of 870±213.1 vessels per mm^2 and increased after 3 weeks of I.P treatment (1103±110.2 vessels per mm^2), and even more after 6 weeks (1384±175.3 vessels per mm^2, p=0.008) (FIG. 2e). Neovessels presented with normal histological appearance associating a basal lamina and a permeable lumen sometimes containing red blood cells. […] 841±137 CD31+ cells per mm^2 were counted in the placebo-treated mice vs. 2260±361 CD31+ cells per mm^2 in the fluoxetine-treated mice, p=0.008 (FIG. 2t-v), confirming the previous observation.
# In order to investigate the effect of vortioxetine on vessels number, intra peritoneal (I.P) administration of 20 mg/kg of vortioxetine was performed for either 12 days, 3 or 6 weeks to C57Bl/6 mice (FIG. 10a). The number of CD31+ cells was counted by immunostaining. The number of vessels in the placebo is (863.5±115.6 vessels per mm^2) and increases after 12 days of I.P treatment (2274±926 vessels per mm^2, p=0.03), and even more after 3 weeks (2847±705 vessels per mm^2, p=0.02) (FIG. 10b). However, there was no statistically significant differences between 12 days and 3 weeks of treatment (p=0.49). Neovessels display a normal histological appearance associated with a basal lamina and a permeable lumen sometimes containing red blood cells. The daily administration of vortioxetine IP might cause unwanted peritoneal inflammation that could interfere with angiogenesis since inflammation and neovascularization are intertwined in some models. Vortioxetine was therefore administered per os (P.O) for 12 days: a similar increase in the number of vessels was observed (2451±595 vessels per mm^2 p=0.028, FIG. 10c). To further confirm those results, vortioxetine will be administered to Flk1^GFP/+ mice P.O and I.P for 12 days, and an ex vivo Matrigel angiogenesis assay and plasma from vortioxetine treated mice will be used on HUVEC (endothelial cells).
# [2] = tested on: Mdx mice; experiment: Grip strength test in mdx mice; type: in vivo, mouse; conditions: fluoxetine treated mdx mice, 6 weeks; 4 limbs
# Procedure: The grip strength test is a non-invasive method designed to evaluate mouse muscle force in vivo. A grip meter (Bio-GT3, BIOSEB), attached to a force transducer, measures the peak force generated. […] Five trials were conducted and, before statistical analysis, a mean value was calculated for each mouse using the tree median data. Results are expressed as the result of tree peak forces (in g), normalized to the body weight (in g).
# This was confirmed on soleus muscle (data not shown).
# [3] = tested on: CD31 expressing cells; experiment: Ex vivo Matrigel angiogenesis assay (subcutaneous plugs); type: in vivo, mouse; conditions: C57Bl/6 treated P.O for 6 weeks
# Description: To further confirm the above results, an ex vivo Matrigel angiogenesis assay was used. To do so, a cold Matrigel was introduced subcutaneously, which solidifies and allows the penetration by host cells and the formation of new blood vessels in C57Bl/6 treated P.O for 6 weeks.
# [4] = tested on: HUVEC; experiment: In vitro HUVEC assay on cytodex beads in plasma of treated mice; type: cell-based, human; conditions: plasma from mice treated P.O 6 weeks; 4 days post plating
# Procedure: C57Bl/6 mice were treated P.O for 6 weeks and plasma was extracted from blood. HUVEC cells were then plated on cytodex beads and cultured in either of the plasma. The growth of HUVEC incubated with plasma coming from treated animals was faster 4 days post plating (p≤0.0001) (FIGS. 2m-o).
# [5] = tested on: satellite cells; experiment: Satellite cell (SC) number in tibialis anterior of treated mice (histological count or FACS cytometry); type: in vivo, mouse; conditions: GR127935 in osmotic pump together with vortioxetine I.P 12 days; Tg:Pax7nGFP mice
# Procedure: For satellite cell counting, only the tibialis anterior muscle was dissected and digested as described earlier, and the totality of the tube was analysed to assess the number of satellite cells per muscle. FACS analysis was done using a FACSasia (Beckman). All analyses and quantitation were performed using Summit v4.3 software from DakoCytomation and FloJo software. […]
# In order to count the number of satellite cells, the tibialis anterior (TA) of Tg:Pax7nGFP mice were digested and analysed by FACS in placebo and vortioxetine (12 days, 20 mg/Kg) treated mice. […] After 3 weeks of vortioxetine treatment, the number of satellite cells was even higher (9351 satellite cells±706, p=0.0079) but no statistically significant differences were found between 12 days and 3 weeks of treatment (p=0.15).
Structure (SMILES),"Number of vessels ([1]; fluoxetine 18 mg/kg I.P, 3 weeks, Flk1GFP/+ mouse) [vessels per mm^2]","Number of vessels ([1]; fluoxetine 18 mg/kg I.P, 6 weeks, Flk1GFP/+ mouse) [vessels per mm^2]","Number of vessels ([1]; fluoxetine P.O 6 weeks and PBS in osmotic pump, Flk1GFP/+ mice) [vessels per mm^2]","CD31+ cells on cryo-sectioned TA ([1]; fluoxetine P.O, 6 weeks, C57Bl/6 mice) [CD31+ cells per mm^2]","Number of vessels ([1]; fluoxetine P.O, 6 weeks, Flk1GFP/+ mouse) [vessels per mm^2]",Total muscle force increase [2] [%],Number of CD31 expressing cells in Matrigel plugs [3] [CD31+ cells per mm^2],Growth of HUVEC vs placebo plasma [4],"Number of vessels ([1]; GR127935 in osmotic pump together with fluoxetine P.O 6 weeks, Flk1GFP/+ mice) [vessels per mm^2]",Number of SC [5] [SC per TA]
CNCCC(Oc1ccc(C(F)(F)F)cc1)c1ccccc1 (stereo not shown) [fluoxetine],1103±110.2,1384±175.3,1949±576,2260±361,1256±62.2,56,72.9±22.6,faster,,
COc1ccc(NC(=O)c2ccc(-c3ccc(-c4noc(C)n4)cc3C)cc2)cc1N1CCN(C)CC1 [GR127935],,,,,,,,,1028±173,5540±411
